Columns and labels:
Type in all cases: cell-based
Escherichia coli [1] = assay: Variant Micromax assay of cell enlargement by low-dose mitomycin C after tobramycin (Example 8)
Experimental: As an example, two strains of Escherichia coli exponentially growing in Mueller-Hinton broth were incubated under four different conditions and then assayed. One strain was susceptible and the other resistant to the aminoglycoside tobramycin (an inhibitor of protein synthesis). For the purpose of rapidly distinguishing susceptible and non-susceptible strains to tobramycin each strain was incubated under four conditions.
A portion of each strain was incubated with tobramycin at 4 μg/ml for 90 minutes. As described previously, this dose is indicated by the CLSI as the breakpoint of susceptibility to tobramycin in the standard antibiogram based on microdilution. Another portion of both strains was incubated in Mitomycin C at 0.5 μg/ml for 60 minutes. Still another portion of each strain was incubated with tobramycin at 4 μg/ml for 30 minutes followed by mitomycin C at 0.5 μg/ml for 60 minutes, without removing the tobramycin. A final portion of both strains was not incubated with either antibiotic.
After the incubation, cells were processed using a variant Micromax technology to visualize any enlargement or not of the bacteria. Samples from cells from the culture were immersed in an agarose microgel on a slide, dried, stained with a highly sensitive fluorochrome for DNA like SYBR Gold and visualized under fluorescence microscopy to visualize cell shape and size. Images were similar those correspondent to the previous figure.

Klebsiella pneumoniae = assay: Variant Micromax assay of cell wall damage by meropenem after tobramycin, twelve strains; conditions: for cell wall lysis by meropenem: tobramycin 4 μg/ml 15 min followed by meropenem 1 μg/ml 60 min
Experimental: After incubation cells were processed using a variant Micromax technology to visualize the affectation or not of the cell wall based on the release or not of the nucleoids contained inside the bacteria. In the same manner described previously, samples from cells from the culture are immersed in an agarose microgel on a slide and incubated with a specific lysing solution that removes the cell wall only in those bacteria whose peptidoglycan was affected, thus releasing in the microgel the nucleoids contained inside. […] The processed bacteria in microgel are dried, stained with a high sensitive fluorochrome for DNA like SYBR Gold and visualized under fluorescence microscopy.
Further exemplifying the concept described above twelve strains of Klebsiella pneumoniae, 7 susceptible and 5 resistant to tobramycin, were processed using the same rationale and procedure. Specifically, one portion of each was incubated with tobramycin at 4 μg/ml for 75 min. Another portion was incubated with Meropenem at 1 μg/ml for 60 min. Still another portion was incubated with tobramycin at 4 μg/ml for 15 minutes followed by meropenem at 1 μg/ml for 60 min, without removing the tobramycin. A final portion remained without any antibiotics.

Escherichia coli [2] = assay: Micromax assay of ciprofloxacin-induced DNA fragmentation after a protein synthesis inhibitor (Example 1); conditions: for DNA fragmentation of nucleoids: tobramycin 4 μg/ml 10 min followed by ciprofloxacin 1 μg/ml 30 min
Experimental: As an exemplification of the principals previously described, two strains of Escherichia coli exponentially growing in Mueller-Hinton broth were assayed (FIGS. 1-6). The first strain of Escherichia coli was a TG1 strain susceptible to both the aminoglycoside tobramycin (an inhibitor of protein synthesis) and the quinolone ciprofloxacin (an agent which induces DNA fragmentation by trapping of topoisomerases in DNA) (FIGS. 1-3). The second strain was a clinical isolate resistant to tobramycin and susceptible to ciprofloxacin (FIGS. 4-6). Four treatments were applied to each strain to rapidly distinguish the susceptible and the resistant strain to tobramycin.
One portion of both bacterial strains was incubated with tobramycin at 4 μg/ml for 40 minutes (FIGS. 1 and 4), a dosage indicated by the CLSI as the breakpoint of susceptibility to tobramycin in the standard antibiogram based on microdilution. Another portion of both strains was incubated with ciprofloxacin at 1 μg/ml for 30 min (FIGS. 2 and 5). Still another portion of both strains was incubated with tobramycin at 4 μg/ml for 10 min followed by ciprofloxacin at 1 μg/ml for 30 min, without removing the tobramycin (FIGS. 3 and 6). A final portion was left with no antibiotic.
After each incubation cells were processed using the variant of the Micromax technology to visualize the nucleoids, i.e. bacterial chromosomal DNA, in all the cells of the population. Cells from each culture were immersed in an agarose microgel on a slide and incubated with a specific lysing solution to remove the cell wall in all the cells and release in the microgel the nucleoids contained inside the bacteria. These are dried, stained with a high sensitive fluorochrome for DNA like SYBR Gold and visualized under fluorescence microscopy. FIGS. 1-6 depicts representative images captured under each of the conditions described below.
The above described methodology was employed to rapidly determine the susceptibility of 12 strains of E. coli to tobramycin. One portion of each bacterial strain was incubated with tobramycin at the susceptibility breakpoint dosage, 4 μg/ml, for 40 min. A portion of each strain was incubated with ciprofloxacin at 1 μg/ml for 30 min. Still another portion of each strain was incubated with tobramycin at 4 μg/ml for 10 min followed by ciprofloxacin at 1 μg/ml for 30 min, without removing the tobramycin. A final portion of each strain was left with no antibiotic. E. coli strains were identified as susceptible or not based on the levels of DNA fragmentation in the portion of each strain incubated with ciprofloxacin and the portion incubated with tobramycin and ciprofloxacin.
The principals exemplified in Example 1 were confirmed with the aminoglycoside amikacin. Briefly, a susceptible and resistant strain of E. coli were exposed to similar conditions to those described in Example 1, except that amikacin was utilized as the protein synthesis inhibiting antibiotic. Specifically, each was strain subjected to four treatments. One portion received no antibiotics, and another portion received only a quinolone, such as ciprofloxacin or norfloxacin to induce DNA fragmentation. Still another portion received the protein synthesis inhibiting antibiotic aminoglycoside amikacin, followed by the quinolone. Another portion received only amikacin. A final portion received neither antibiotic.
The principals exemplified in Example 1 were further confirmed with the aminoglycoside gentamicin. Briefly, the rapid test was performed on 15 isolated E. coli strains according to the methodology described above, except that gentamicinin was utilized as the protein synthesis inhibiting antibiotic. Suppressed DNA fragmentation were used to characterize bacterial susceptibility and those characterizations were verified with the standard antibiogram for gentamicin by microdilution. […]

[3] = rapid test, confirmed by microdilution antibiogram, 12 strains for tobramycin, 15 for gentamicin

SMILES: NC[C@H]1O[C@H](O[C@H]2[C@H](O)[C@@H](O[C@H]3O[C@H](CO)[C@@H](O)[C@H](N)[C@H]3O)[C@H](N)C[C@@H]2N)[C@H](N)C[C@@H]1O [tobramycin]
- cell enlargement (Escherichia coli [1]; tobramycin 4 μg/ml 30 minutes followed by mitomycin C 0.5 μg/ml 60 minutes, tobramycin-resistant strain): appeared enlarged
- bacterial shape and size (Escherichia coli [1]; tobramycin alone 4 μg/ml 90 minutes, both strains): does not affect bacterial shape and size
- strains resistant to tobramycin (Klebsiella pneumoniae; of twelve strains): 5
- strains susceptible to tobramycin (Klebsiella pneumoniae; of twelve strains): 7
- cell wall lysis by meropenem (Klebsiella pneumoniae; tobramycin-resistant strains): the affectation of the cell wall by meropenem was not suppressed
- cell wall lysis by meropenem (Klebsiella pneumoniae; tobramycin-susceptible strains): no appearance of cell wall lysis by meropenem
- E. coli strains identified as non-susceptible (resistant) (Escherichia coli [2]; [3]): three of the twelve strains as non-susceptible
- E. coli strains identified as susceptible (Escherichia coli [2]; [3]): nine of the twelve strains as susceptible
- DNA fragmentation of nucleoids (Escherichia coli [2]; tobramycin-resistant clinical isolate): the DNA was extensively fragmented
- DNA fragmentation of nucleoids (Escherichia coli [2]; tobramycin-susceptible TG1 strain): nucleoids with reduced level of DNA fragmentation
- modification of nucleoids (Escherichia coli [2]; tobramycin alone 4 μg/ml 40 min, both tobramycin-susceptible and -resistant strains): did not result in any modifications of the nucleoids

Source: patent US10472663B2, “Procedure for the rapid determination of bacterial susceptibility to antibiotics that inhibit protein synthesis” (ABM TECHNOLOGIES, LLC, priority 2015, dated 2019)
